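Compound exposure: 48 hours, 5 concentrations, 96-well plates. TGI denotes the concentration required for complete inhibition of growth.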
Experiments:
Assay in all cases: growth of human tumour cells (NCI), 48 h
OVCAR-5 ovarian = test system: OVCAR-5 ovarian
A549 NSCLC = test system: A549 NSCLC
SR leukemia = test system: SR leukemia
HOP-62 NSCLC = test system: HOP-62 NSCLC
786-0 renal = test system: 786-0 renal
TK-10 renal = test system: TK-10 renal
OVCAR-4 ovarian = test system: OVCAR-4 ovarian
M14 melanoma = test system: M14 melanoma
SN12C renal = test system: SN12C renal
COLO 205 colon = test system: COLO 205 colon
MOLT-4 leukemia = test system: MOLT-4 leukemia
DU-145 prostate = test system: DU-145 prostate
UO-31 renal = test system: UO-31 renal
MCF7 breast = test system: MCF7 breast
SF-295 CNS = test system: SF-295 CNS
UACC-257 melanoma = test system: UACC-257 melanoma
NCI/ADR-RES ovarian = test system: NCI/ADR-RES ovarian
HCT-15 colon = test system: HCT-15 colon
HL-60(TB) leukemia = test system: HL-60(TB) leukemia
HT29 colon = test system: HT29 colon
SF-268 CNS = test system: SF-268 CNS
OVCAR-8 ovarian = test system: OVCAR-8 ovarian
SNB-19 CNS = test system: SNB-19 CNS
SK-MEL-28 melanoma = test system: SK-MEL-28 melanoma
RPMI-8226 leukemia = test system: RPMI-8226 leukemia
OVCAR-3 ovarian = test system: OVCAR-3 ovarian
SK-MEL-5 melanoma = test system: SK-MEL-5 melanoma
MDA-MB-231 breast = test system: MDA-MB-231 breast
LOX IMVI melanoma = test system: LOX IMVI melanoma
MALME-3M melanoma = test system: MALME-3M melanoma
NCI-H522 lung = test system: NCI-H522 lung
HCT-116 colon = test system: HCT-116 colon
U251 CNS = test system: U251 CNS
HS 578T breast = test system: HS 578T breast
MDA-N = test system: MDA-N
CAKI-1 renal = test system: CAKI-1 renal
KM12 colon = test system: KM12 colon
NCI-H460 lung = test system: NCI-H460 lung
EKVX NSCLC = test system: EKVX NSCLC
SW-620 colon = test system: SW-620 colon
ACHN renal = test system: ACHN renal
MDA-MB-435 = test system: MDA-MB-435
SK-MEL-2 melanoma = test system: SK-MEL-2 melanoma
CCRF-CEM leukemia = test system: CCRF-CEM leukemia
NCI-H226 lung = test system: NCI-H226 lung
BT-549 breast = test system: BT-549 breast
IGROV1 ovarian = test system: IGROV1 ovarian
RXF 393 renal = test system: RXF 393 renal
UACC-62 melanoma = test system: UACC-62 melanoma
PC-3 prostate = test system: PC-3 prostate
NCI-H23 lung = test system: NCI-H23 lung
A498 renal = test system: A498 renal
K-562 leukemia = test system: K-562 leukemia
HCC-2998 colon = test system: HCC-2998 colon
T-47D breast = test system: T-47D breast
SF-539 CNS = test system: SF-539 CNS
HOP-92 NSCLC = test system: HOP-92 NSCLC
SK-OV-3 ovarian = test system: SK-OV-3 ovarian
SNB-75 CNS = test system: SNB-75 CNS

Measured: TGI

C=C1C(=O)C([Si](C)(C)C)=C2C=C(C)C3(CC3)C12C (centres undefined)
84.6 µM: MDA-MB-231 breast
54.1 µM: K-562 leukemia
48.7 µM: HT29 colon
78.7 µM: MALME-3M melanoma
34.8 µM: HL-60(TB) leukemia
36.4 µM: COLO 205 colon
55 µM: BT-549 breast
42.5 µM: PC-3 prostate
89 µM: LOX IMVI melanoma
42.2 µM: EKVX NSCLC
11.7 µM: SR leukemia
66.2 µM: NCI-H522 lung
15.3 µM: RPMI-8226 leukemia
64.3 µM: MDA-MB-435
> 100 µM: OVCAR-5 ovarian | A549 NSCLC | HOP-62 NSCLC | 786-0 renal | TK-10 renal | OVCAR-4 ovarian | M14 melanoma | SN12C renal | DU-145 prostate | UO-31 renal | SF-295 CNS | UACC-257 melanoma | HCT-15 colon | SF-268 CNS | OVCAR-8 ovarian | SNB-19 CNS | SK-MEL-28 melanoma | OVCAR-3 ovarian | SK-MEL-5 melanoma | HCT-116 colon | U251 CNS | HS 578T breast | MDA-N | CAKI-1 renal | KM12 colon | NCI-H460 lung | SW-620 colon | ACHN renal | NCI-H226 lung | IGROV1 ovarian | UACC-62 melanoma | NCI-H23 lung | A498 renal | T-47D breast
11.9 µM: MOLT-4 leukemia
70.4 µM: MCF7 breast
60.5 µM: RXF 393 renal
70.2 µM: HCC-2998 colon
44.2 µM: NCI/ADR-RES ovarian
61.1 µM: SK-MEL-2 melanoma
11 µM: CCRF-CEM leukemia

O=c1[nH]c(=O)n(C2OC(CO)C(O)C(F)C2O)cc1F (centres undefined)
76.4 µM: SR leukemia
> 100 µM: OVCAR-5 ovarian | A549 NSCLC | 786-0 renal | TK-10 renal | OVCAR-4 ovarian | M14 melanoma | SN12C renal | COLO 205 colon | DU-145 prostate | UO-31 renal | MCF7 breast | SF-295 CNS | UACC-257 melanoma | NCI/ADR-RES ovarian | HCT-15 colon | SF-539 CNS | HL-60(TB) leukemia | HT29 colon | SF-268 CNS | OVCAR-8 ovarian | SNB-19 CNS | SK-MEL-28 melanoma | RPMI-8226 leukemia | OVCAR-3 ovarian | SK-MEL-5 melanoma | MDA-MB-231 breast | LOX IMVI melanoma | MALME-3M melanoma | NCI-H522 lung | HCT-116 colon | U251 CNS | HS 578T breast | MDA-N | CAKI-1 renal | NCI-H460 lung | SW-620 colon | ACHN renal | MDA-MB-435 | HOP-92 NSCLC | SK-MEL-2 melanoma | CCRF-CEM leukemia | SK-OV-3 ovarian | NCI-H226 lung | BT-549 breast | UACC-62 melanoma | PC-3 prostate | NCI-H23 lung | A498 renal | K-562 leukemia | HCC-2998 colon | T-47D breast
62 µM: MOLT-4 leukemia

CC1=C/C(=N\OCC(=O)O)CC(c2ccc(C(C)C)cc2)C1 (centres undefined)
68.1 µM: MOLT-4 leukemia
> 100 µM: OVCAR-5 ovarian | A549 NSCLC | SR leukemia | 786-0 renal | M14 melanoma | SN12C renal | COLO 205 colon | DU-145 prostate | MCF7 breast | SF-295 CNS | UACC-257 melanoma | SF-539 CNS | HL-60(TB) leukemia | OVCAR-8 ovarian | MDA-MB-231 breast | MALME-3M melanoma | HCT-116 colon | U251 CNS | HS 578T breast | MDA-N | CAKI-1 renal | KM12 colon | NCI-H460 lung | EKVX NSCLC | SW-620 colon | MDA-MB-435 | HOP-92 NSCLC | SK-MEL-2 melanoma | CCRF-CEM leukemia | SK-OV-3 ovarian | IGROV1 ovarian | RXF 393 renal | UACC-62 melanoma | PC-3 prostate | K-562 leukemia | T-47D breast
75.5 µM: NCI/ADR-RES ovarian
79.1 µM: NCI-H522 lung
71.9 µM: HCT-15 colon
57.1 µM: RPMI-8226 leukemia
37.6 µM: HT29 colon
34.1 µM: SK-MEL-5 melanoma

Nc1ccn(C2CC(O)C(COP(O)(=S)OC3CC(n4ccc(N)nc4=O)OC3CO)O2)c(=O)n1 (centres undefined)
> 100 µM: OVCAR-5 ovarian | A549 NSCLC | SR leukemia | HOP-62 NSCLC | 786-0 renal | TK-10 renal | OVCAR-4 ovarian | M14 melanoma | SN12C renal | COLO 205 colon | MOLT-4 leukemia | DU-145 prostate | UO-31 renal | MCF7 breast | SF-295 CNS | UACC-257 melanoma | NCI/ADR-RES ovarian | HCT-15 colon | SF-539 CNS | HL-60(TB) leukemia | HT29 colon | SF-268 CNS | OVCAR-8 ovarian | SNB-19 CNS | SK-MEL-28 melanoma | RPMI-8226 leukemia | OVCAR-3 ovarian | SK-MEL-5 melanoma | MDA-MB-231 breast | LOX IMVI melanoma | NCI-H522 lung | HCT-116 colon | U251 CNS | HS 578T breast | MDA-N | SNB-75 CNS | CAKI-1 renal | KM12 colon | NCI-H460 lung | EKVX NSCLC | SW-620 colon | ACHN renal | MDA-MB-435 | HOP-92 NSCLC | SK-MEL-2 melanoma | CCRF-CEM leukemia | BT-549 breast | IGROV1 ovarian | UACC-62 melanoma | PC-3 prostate | NCI-H23 lung | HCC-2998 colon | T-47D breast

Reference: PubChem BioAssay (NCI)
